Data: patent US9611262B2, “Substituted 2-azabicycles and their use as orexin receptor modulators” (JANSSEN PHARMACEUTICA NV, priority 2014, dated 2017)

Tests used:
human orexin 2 receptor = human orexin 2 receptor (Homo sapiens (Human), UniProt O43614); experiment: Human orexin 2 receptor radioligand binding ([3H]-EMPA competition); settings: HEK293 stably expressing human orexin 2 receptor; 2 nM [3H]-EMPA; averages of 2-20 runs; read-out: hOX2 Ki
Outline: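 Membranes-free whole HEK293 cells stably expressing human OX2 receptor incubated with [3H]-EMPA and compound (7 concentrations, 0.1 nM–10 μM, ≤0.1% DMSO) for 60 min at room temperature; nonspecific binding with 10 μM almorexant. Filtration and scintillation counting; one-site IC50 converted to Ki using predetermined Kd, triplicates averaged over 2-20 runs.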

rat orexin 1 receptor = rat orexin 1 receptor (Rattus norvegicus, UniProt P56718); experiment: Rat orexin 1 receptor radioligand binding (competitive); settings: HEK293 cells stably expressing rat orexin 1 receptor; 4 nM radioligand; averages of 2-20 runs; read-out: rOX1 Ki
Procedure: (§1) The in vitro affinity of the compounds of the invention for the rat/human orexin 1 and human orexin 2 receptors was determined by competitive radioligand binding using [^3H](1-(5-(2-fluoro-phenyl)-2-methyl-thiazol-4-yl)-1-((S)-2-(5-phenyl-(1,3,4)oxadiazol-2-ylmethyl)-pyrrolidin-1-yl)-methanone) (Langmead et al., 2004) and [^3H]EMPA (n-ethyl-2[96-methoxy-pyridin-3-yl)-(toluene-2-sulfonyl)-amino]-N-pyridin-3-ylmethyl acetamide), respectively (Langmead et al., 2004, British Journal of Pharmacology 141:340-346; Malherbe et al., 2004, British Journal of Pharmacology 156:1326-41).
(§2) Data are analyzed using pc-Sandy macro and graphed on Graphpad Prism 5. For analysis, each concentration point is averaged from triplicate values and the averaged values are plotted on Graphpad Prism. The IC50 was determined by applying the following equation (GraphPad Prism 5.0, San Diego) for one site competition where X=log (concentration) and Y=specific binding. Top denotes the total [^3H]— (1-(5-(2-fluoro-phenyl)-2-methyl-thiazol-4-yl)-1-((S)-2-(5-phenyl-(1,3,4)oxadiazol-2-ylmethyl)-pyrrolidin-1-yl)-methanone) binding, bottom denotes the nonspecific [^3H]— (1-(5-(2-fluoro-phenyl)-2-methyl-thiazol-4-yl)-1-((S)-2-(5-phenyl-(1,3,4)oxadiazol-2-ylmethyl)-pyrrolidin-1-yl)-methanone) binding. Graphpad Prism calculates Ki value from IC50 and the pre-determined Kd values for [^3H]— (1-(5-(2-fluoro-phenyl)-2-methyl-thiazol-4-yl)-1-((S)-2-(5-phenyl-(1,3,4)oxadiazol-2-ylmethyl)-pyrrolidin-1-yl)-methanone) and [^3H]-EMPA. The Ki for each compound is then uploaded into 3DX. Each run comprises individual compounds in triplicate. The data in Table 1 and Table 2 represent averages from between 2-20 runs
(§3) Rat and Human Orexin 1 Receptor Radioligand Binding Studies
(§4) Human Embryonic Kidney 293 cells (HEK293) stably expressing rat orexin 1 receptor (Genebank accession number NM_001525) or Chinese ovary cells (CHO) stably expressing human orexin 1 receptor (Genebank accession number […]) were grown to confluency in DMEM (Hyclone, cat # SH30022), 10% FBS, 1× Pen/Strep, 1× sodium pyruvate, 10 mM HEPES, 600 μg/mL G418 and DMEM/F12 (Gibco, Cat #11039), 10% FBS, 1× Pen/Strep, 600 μg/mL G418 media, respectively on 150 cm^2 tissue culture plates, washed with 5 mM EDTA in PBS (HyClone Dulbecco's Phosphate Buffered Saline 1× with Calcium and Magnesium, Cat # SH30264.01, hereafter referred to simply as PBS) and scraped into 50 ml tubes. After centrifugation (2K×G, 5 min at 4° C.), the supernatant was aspirated and the pellets frozen and stored at −80° C. Cells were resuspended in PBS in the presence of 1 tablet of protease inhibitor cocktail (Roche, Cat. #11836145001) per 50 mL. […] Competition binding experiments in 96 well polypropylene plates were performed using [^3H]— (1-(5-(2-fluoro-phenyl)-2-methyl-thiazol-4-yl)-1-((S)-2-(5-phenyl-(1,3,4)oxadiazol-2-ylmethyl)-pyrrolidin-1-yl)-methanone) (Moraveck Corporation, specific activity=35.3 Ci/mmol), diluted to a 10 nM concentration in PBS (4 nM final). Compounds were solubilized in 100% DMSO (Acros Organics, Cat. #61042-1000) and tested over a range of 7 concentrations (from 0.1 nM to 10 μM). The final concentration of DMSO in the reactions is equal to or less than 0.1%. Total and nonspecific binding was determined in the absence and presence of 10 μM almorexant. The total volume of each reaction is 200 μL (20 μL of diluted compounds, 80 μL of [^3H]— (1-(5-(2-fluoro-phenyl)-2-methyl-thiazol-4-yl)-1-((S)-2-(5-phenyl-(1,3,4)oxadiazol-2-ylmethyl)-pyrrolidin-1-yl)-methanone) diluted in PBS and 100 μL of the cell suspension). Reactions were run for 60 min at room temperature and terminated by filtration through GF/C filter plates (PerkinElmer, Cat. #6005174) presoaked in 0.3% polyethylenimine using the cell harvester (PerkinElmer Filtermate). The plates were washed 3 times by aspirating 30 ml PBS through the plates. Plates were dried in 55° C. oven for 60 min, scintillation fluid was added, and the radioactivity was counted on a Topcount (Packard). […]

human orexin 1 receptor = human orexin 1 receptor (Homo sapiens (Human), UniProt O43613); experiment: Human orexin 1 receptor radioligand binding (competitive); settings: CHO cells stably expressing human orexin 1 receptor; 4 nM radioligand; averages of 2-20 runs; read-out: hOX1 Ki
Procedure: as §1, §2, §3, §4

Sequence of human orexin 2 receptor (O43614 whole entry): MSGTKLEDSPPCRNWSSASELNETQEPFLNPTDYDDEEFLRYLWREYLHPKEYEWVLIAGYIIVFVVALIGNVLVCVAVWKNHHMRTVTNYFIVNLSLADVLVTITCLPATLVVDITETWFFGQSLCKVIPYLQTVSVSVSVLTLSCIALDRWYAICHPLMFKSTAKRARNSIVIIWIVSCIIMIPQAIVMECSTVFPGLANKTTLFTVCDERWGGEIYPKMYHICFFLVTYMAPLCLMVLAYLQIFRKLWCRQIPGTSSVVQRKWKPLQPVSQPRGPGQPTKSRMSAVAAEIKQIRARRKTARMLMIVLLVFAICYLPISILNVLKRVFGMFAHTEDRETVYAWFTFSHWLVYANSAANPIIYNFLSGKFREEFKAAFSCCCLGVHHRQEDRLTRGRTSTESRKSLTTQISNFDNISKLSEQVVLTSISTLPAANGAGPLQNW
Sequence of human orexin 1 receptor (O43613 whole entry): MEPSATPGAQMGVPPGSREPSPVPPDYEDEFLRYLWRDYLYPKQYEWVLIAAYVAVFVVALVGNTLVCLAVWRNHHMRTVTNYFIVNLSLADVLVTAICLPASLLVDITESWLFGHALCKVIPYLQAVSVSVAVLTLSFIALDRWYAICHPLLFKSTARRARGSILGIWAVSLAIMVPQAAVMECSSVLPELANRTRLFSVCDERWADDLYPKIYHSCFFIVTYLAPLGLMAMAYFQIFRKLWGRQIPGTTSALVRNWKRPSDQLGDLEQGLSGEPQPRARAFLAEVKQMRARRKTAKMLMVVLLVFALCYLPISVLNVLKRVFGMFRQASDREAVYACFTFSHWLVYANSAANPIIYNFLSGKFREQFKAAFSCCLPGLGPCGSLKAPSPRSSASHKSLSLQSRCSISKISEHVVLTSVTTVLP

Row | SMILES | Ki (human orexin 2 receptor) [nM] | Ki (rat orexin 1 receptor) [nM] | Ki (human orexin 1 receptor) [nM]
1 | C[C@@H]1[C@H]2C[C@@H](Oc3ccc(C(F)(F)F)cn3)[C@H](C2)N1C(=O)c1ccccc1-c1ncc(OCCF)cn1 [Example 169, [2-[5-(2-fluoroethoxy)pyrimidin-2-yl]phenyl]-[(1R,2R,4S,5R)-2-methyl-5-[[5-(trifluoromethyl)-2-pyridyl]oxy]-3-azabicyclo[2.2.1]heptan-3-yl]methanone] | 3940 | 52 | 
2 | O=C(c1c(F)cccc1-n1nccn1)N1[C@H](CO)[C@@H]2CC[C@H]1[C@H](Oc1ccc(C(F)(F)F)cn1)C2 [Example 177, [2-fluoro-6-(triazol-2-yl)phenyl]-[(1R,2S,4S,5R)-2-(hydroxymethyl)-5-[[5-(trifluoromethyl)-2-pyridyl]oxy]-3-azabicyclo[2.2.2]octan-3-yl]methanone] | > 10000 | 1150 | 
3 | O=C(c1cc(F)ccc1-c1ncc(F)cn1)N1[C@H](CO)[C@@H]2CC[C@H]1[C@H](Oc1ccc(C(F)(F)F)cn1)C2 [Example 178, [5-fluoro-2-(5-fluoropyrimidin-2-yl)phenyl]-[(1R,2S,4S,5R)-2-(hydroxymethyl)-5-[[5-(trifluoromethyl)-2-pyridyl]oxy]-3-azabicyclo[2.2.2]octan-3-yl]methanone] | > 10000 | 1100 | 
4 | COC[C@@H]1[C@@H]2CC[C@@H]([C@H](Oc3ccc(C(F)(F)F)cn3)C2)N1C(=O)c1nc(C)ccc1-n1nccn1 [Example 179, [(1R,2S,4S,5R)-2-(methoxymethyl)-5-[[5-(trifluoromethyl)-2-pyridyl]oxy]-3-azabicyclo[2.2.2]octan-3-yl]-[6-methyl-3-(triazol-2-yl)-2-pyridyl]methanone] | 2100 | 15 | 
5 | COC[C@@H]1[C@@H]2CC[C@@H]([C@H](Oc3ccc(C(F)(F)F)cn3)C2)N1C(=O)c1ccccc1-c1ncccn1 [Example 181, [(1R,2S,4S,5R)-2-(methoxymethyl)-5-[[5-(trifluoromethyl)-2-pyridyl]oxy]-3-azabicyclo[2.2.2]octan-3-yl]-(2-pyrimidin-2-ylphenyl)methanone] | > 10000 | 87 | 
6 | C[C@@H]1[C@H]2C[C@@H](Oc3ccc(C(F)(F)F)cn3)[C@H](C2)N1C(=O)c1ccc(OCCF)cc1-n1nccn1 [Example 202, [4-(2-fluoroethoxy)-2-(triazol-2-yl)phenyl]-[(1R,2R,4S,5R)-2-methyl-5-[[5-(trifluoromethyl)-2-pyridyl]oxy]-3-azabicyclo[2.2.1]heptan-3-yl]methanone] | > 10000 | 196 | 
7 | C[C@@H]1[C@H]2C[C@@H](Oc3ccc(C(F)(F)F)cn3)[C@H](C2)N1C(=O)c1cc2ccccc2nc1OCCO [Example 203, [2-(2-hydroxyethoxy)-3-quinolyl]-[(1R,2R,4S,5R)-2-methyl-5-[[5-(trifluoromethyl)-2-pyridyl]oxy]-3-azabicyclo[2.2.1]heptan-3-yl]methanone] | > 10000 | 60 | 
8 | C[C@@H]1[C@H]2C[C@@H](Oc3ccc(C(F)(F)F)cn3)[C@H](C2)N1C(=O)c1cc2ccccc2nc1OCCF [Example 205, [2-(2-fluoroethoxy)-3-quinolyl]-[(1R,2R,4S,5R)-2-methyl-5-[[5-(trifluoromethyl)-2-pyridyl]oxy]-3-azabicyclo[2.2.1]heptan-3-yl]methanone] | 5400 | 22 | 

Stronger by Ki (human orexin 2 receptor), values ahead:

Row | Ki (human orexin 2 receptor) [nM] | Ki (rat orexin 1 receptor) [nM] | Ki (human orexin 1 receptor) [nM] | SMILES
9 | 1600 | 9 |  | C[C@@H]1[C@H]2C[C@@H](Oc3ccc(C(F)(F)F)cn3)[C@H](C2)N1C(=O)c1ccccc1-c1cnc(F)cn1 [Example 170, [2-(5-fluoropyrazin-2-yl)phenyl]-[(1R,2R,4S,5R)-2-methyl-5-[[5-(trifluoromethyl)-2-pyridyl]oxy]-3-azabicyclo[2.2.1]heptan-3-yl]methanone]
10 | 343 |  | 5 | C[C@@H]1[C@H]2C[C@@H](Oc3ccc(C(F)(F)F)cn3)[C@H](C2)N1C(=O)c1ccccc1-c1cccc(F)n1 [Example 173, [2-(6-fluoro-2-pyridyl)phenyl]-[(1R,2R,4S,5R)-2-methyl-5-[[5-(trifluoromethyl)-2-pyridyl]oxy]-3-azabicyclo[2.2.1]heptan-3-yl]methanone]
11 | 1700 | 32 |  | COC[C@@H]1[C@@H]2CC[C@@H]([C@H](Oc3ccc(C(F)(F)F)cn3)C2)N1C(=O)c1nc(C)ccc1-c1ncccn1 [Example 180, [(1R,2S,4S,5R)-2-(methoxymethyl)-5-[[5-(trifluoromethyl)-2-pyridyl]oxy]-3-azabicyclo[2.2.2]octan-3-yl]-(6-methyl-3-pyrimidin-2-yl-2-pyridyl)methanone]
12 | 95 | 11 |  | Cc1ccc(-c2ncccn2)c(C(=O)N2[C@H](C)[C@H]3C[C@@H](Oc4ccc(C(F)F)cn4)[C@@H]2C3)n1 [Example 182, [(1R,2R,4S,5R)-5-[[5-(difluoromethyl)-2-pyridyl]oxy]-2-methyl-3-azabicyclo[2.2.1]heptan-3-yl]-(6-methyl-3-pyrimidin-2-yl-2-pyridyl)methanone]
13 | 795 | 53 |  | CCOC(=O)[C@@H]1[C@H]2C[C@@H](Oc3ccc(C(F)(F)F)cn3)[C@H](C2)N1C(=O)c1nc(C)ccc1-n1nccn1 [Example 192, ethyl (1R,2S,4S,5R)-3-[6-methyl-3-(triazol-2-yl)pyridine-2-carbonyl]-5-[[5-(trifluoromethyl)-2-pyridyl]oxy]-3-azabicyclo[2.2.1]heptane-2-carboxylate]
14 | 236 | 71 |  | C[C@@H]1[C@H]2C[C@@H](Oc3ccc(C(F)(F)F)cn3)[C@H](C2)N1C(=O)c1cc(OCCBr)ccc1-n1nccn1 [Example 204, [5-(2-bromoethoxy)-2-(triazol-2-yl)phenyl]-[(1R,2R,4S,5R)-2-methyl-5-[[5-(trifluoromethyl)-2-pyridyl]oxy]-3-azabicyclo[2.2.1]heptan-3-yl]methanone]
15 | 286 | 7.4 |  | C[C@@H]1[C@H]2C[C@@H](Oc3ccc(C(F)(F)F)cn3)[C@H](C2)N1C(=O)c1c(OCCF)ccc2cccnc12 [Example 206, (7-(2-fluoroethoxy)quinolin-8-yl)((1S,3R,4R,6R)-3-methyl-6-((5-(trifluoromethyl)pyridin-2-yl)oxy)-2-azabicyclo[2.2.1]heptan-2-yl)methanone]
16 | 1010 | 4 |  | C[C@@H]1[C@H]2C[C@@H](Oc3ccc(C(F)(F)F)c(F)n3)[C@H](C2)N1C(=O)c1ccccc1-c1ncccn1 [Example 219, (2-(pyrimidin-2-yl)phenyl)((1S,3R,4R,6R)-3-methyl-6-((6-fluoro-5-(trifluoromethyl)pyridin-2-yl)oxy)-2-azabicyclo[2.2.1]heptan-2-yl)methanone]
